Tests used:
Experiment in all cases: selective drug sensitivity score (sDSS, relative to normal bone marrow) (sDSS (score)); higher = more potent and effective on the cell line relative to normal bone marrow cells
Conditions in all cases: 72 h
COG-LL-394h = tested on: COG-LL-394h
697 = tested on: 697
KASUMI-9 = tested on: KASUMI-9
TANOUE = tested on: TANOUE
MN-60 = tested on: MN-60
JURKAT = tested on: JURKAT
HAL-01 = tested on: HAL-01
LC4-1 = tested on: LC4-1
KOPN-8 = tested on: KOPN-8
P12-ICHIKAWA = tested on: P12-ICHIKAWA
MOLT-14 = tested on: MOLT-14
DND-41 = tested on: DND-41
NALM-16 = tested on: NALM-16
COG-LL-402h = tested on: COG-LL-402h
NALL-1 = tested on: NALL-1
REH = tested on: REH
COG-LL-355h = tested on: COG-LL-355h
380 = tested on: 380
ALL-PO = tested on: ALL-PO
SUP-B15 = tested on: SUP-B15
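Further: ALL cell lines in 384-well plates, five doses spanning 10,000-fold, each plate scaled between vehicle and 100 µmol/L benzalkonium chloride controls, sDSS an adapted area-under-curve metric.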

Compound	selective drug sensitivity score (COG-LL-394h)	selective drug sensitivity score 697	selective drug sensitivity score (KASUMI-9)	selective drug sensitivity score (TANOUE)	selective drug sensitivity score (MN-60)	selective drug sensitivity score (JURKAT)	selective drug sensitivity score (HAL-01)	selective drug sensitivity score (LC4-1)	selective drug sensitivity score (KOPN-8)	selective drug sensitivity score (P12-ICHIKAWA)	selective drug sensitivity score (MOLT-14)	selective drug sensitivity score (DND-41)	selective drug sensitivity score (NALM-16)	selective drug sensitivity score (COG-LL-402h)	selective drug sensitivity score (NALL-1)	selective drug sensitivity score (REH)	selective drug sensitivity score (COG-LL-355h)	selective drug sensitivity score 380	selective drug sensitivity score (ALL-PO)	selective drug sensitivity score (SUP-B15)
CCc1c2c(nc3ccc(O)cc13)-c1cc3c(c(=O)n1C2)COC(=O)[C@]3(O)CC [SN-38] (top concentration 10000 nM)	13.8	22.7	23.5	-5.52	7.28	22.7	21.8	27.1	28	26.5	28	25.5	13.4	21.1	24.4	27.2	14.7	27	19.5	26.9
CC[C@@H](C(=O)[C@@H](C)[C@@H](O)[C@H](C)[C@@H]1O[C@@H]([C@@H](CC)C(=O)O)CC[C@@H]1C)[C@H]1O[C@]2(C=C[C@@H](O)[C@]3(CC[C@@](C)([C@H]4CC[C@](O)(CC)[C@H](C)O4)O3)O2)[C@H](C)C[C@@H]1C [Salinomycin] (top concentration 50000 nM)	3.2	-0.9	-11.4	-7.5	0.3	3.1	5.6	-10.9	-8.4	-2	6.3	4.7	0.3	-4	2.2	-13	-3.1	2.6	-13.2	-11.1
CNC(=O)CN1CCC(Oc2cc3c(Nc4cccc(Cl)c4F)ncnc3cc2OC)CC1 [Sapitinib] (top concentration 1000 nM)	0	0	0	0	0	0	0	0	0	0	0	0	0	0	0	0	0	0	0	0
O[C@H]1CC[C@H](Nc2ncc3nc(Nc4c(F)cc(F)cc4F)n([C@H]4CCOC4)c3n2)CC1 [Tanzisertib] (top concentration 10000 nM)	0	0	0	0	0	0	0	0	1.4	0	0	0	1.2	0	0	0	0.8	0	1.9	0
CO[C@H]1C[C@@H]2CC[C@@H](C)[C@@](O)(O2)C(=O)C(=O)N2CCCC[C@H]2C(=O)O[C@H]([C@H](C)C[C@@H]2CC[C@@H](OC(=O)C(C)(CO)CO)[C@H](OC)C2)CC(=O)[C@H](C)/C=C(\C)[C@@H](O)[C@@H](OC)C(=O)[C@H](C)C[C@H](C)/C=C/C=C/C=C/1C [Temsirolimus] (top concentration 100 nM)	-5.04	14.9	9.06	-5.04	2.46	-0.54	-0.74	3.46	21.9	-1.44	-4.24	3.66	0.16	4.66	-5.04	3.96	-2.54	25.5	2.56	9.86
COc1cc([C@@H]2c3cc4c(cc3[C@@H](O[C@@H]3O[C@@H]5CO[C@@H](c6cccs6)O[C@H]5[C@H](O)[C@H]3O)[C@H]3COC(=O)[C@H]23)OCO4)cc(OC)c1O [Teniposide] (top concentration 10000 nM)	0	0	0	0	0	0	0	0	0	0	0	0	0	0.1	0	0	0	0	0	0
Oc1nc(-c2ccc(C(F)(F)F)cc2)nc2c1CSCC2 [XAV939] (top concentration 10000 nM)	0.36	-0.14	-0.14	-0.14	-0.14	-0.14	-0.14	0.56	0.66	-0.14	-0.14	-0.14	-0.14	0.16	-0.14	-0.04	0.46	1.96	0.06	-0.14
